{"source": "patent EP0745597A2", "about": "“Novel melatonergic indanyl piperazines or homopiperazines” (BRISTOL-MYERS SQUIBB COMPANY, priority 1995, dated 1996)", "note": "pIC50: −log10 of the molar value. “And” between values parts separate entries of the source, which are not always exact repeats. Equal entries are not always repeated."}
{"molecular_target": "T1, human ML1B receptor (Homo sapiens, UniProt P49286)", "T1 construct": "host or cells: NIH 3T3 cells, stably transfected; membrane homogenates", "T1 sequence (P49286 1-362)": "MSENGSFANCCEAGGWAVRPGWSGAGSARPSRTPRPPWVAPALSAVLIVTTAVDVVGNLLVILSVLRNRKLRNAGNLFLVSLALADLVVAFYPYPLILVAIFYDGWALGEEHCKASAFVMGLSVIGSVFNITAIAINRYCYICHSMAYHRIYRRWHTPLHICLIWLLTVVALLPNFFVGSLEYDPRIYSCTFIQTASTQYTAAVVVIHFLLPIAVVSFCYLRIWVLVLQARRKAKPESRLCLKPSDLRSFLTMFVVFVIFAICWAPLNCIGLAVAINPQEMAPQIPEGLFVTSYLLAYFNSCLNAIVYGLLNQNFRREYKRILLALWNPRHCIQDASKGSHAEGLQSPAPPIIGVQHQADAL", "assay": "Measurement of binding to melatonergic receptors (2-[125I]-iodomelatonin, membranes of transfected NIH 3T3 cells)", "details": "2-[125I]-Iodomelatonin 200 pM, 37 °C for 1 hour, NIH 3T3 cells stably transfected with the human ML1B receptor; read-out: Melatonin Binding", "protocol": "The melatonergic binding affinities of various compounds of Formula I were determined by the method of Reppert, S. M., Weaver, D. R., and Ebisawa, R. (Neuron, Volume 13, 1177-1185, 1994). The assays were incubated at 37 °C for 1 hour, and the reaction was terminated by filtration. The filters were washed with wash buffer. […] The reagents, membrane and other techniques used in the melatonergic binding assays are more fully described below: • 1. Reagents: • (a) 50 mM Tris buffer containing 12.5 mM MgCl2, and 2mM EDTA, pH 7.4 at 37 °C. • (b) Wash buffer: 20 mM Tris base containing 2 mM MgCl2. pH 7.4 at room temperature. • (c) Melatonin (10^-5 M final concentration). • (d) 2-[^125I]-Iodomelatonin, 200 pM final concentration Source: NEN • 2. Membrane preparation: NIH 3T3 cells stably transfected with the human ML1B receptor were obtained from S.M. Reppert and maintained. Cells were pelleted when confluent. The supernatant was discarded and the pellets frozen. For preparing membrane homogenates, the pellets are thawed on ice and resuspended in TME buffer, Tris base, MgCl2, EDTA (pH 7.4 at 37 °C ), supplemented with aprotinin, leupeptin, and […]. The cells were then homogenized and centrifuged. The resulting pellet was resuspended with a Dounce homogenizer in TME and frozen. At assay, a small aliquot was thawed on ice and resuspended in TME buffer. […] These compounds are considered active."}
{"smiles": "COc1ccc2c(c1)C(N1CCN(C(=O)CSC)CC1)CC2", "note": "(single isomer, unassigned; (-)) [(-)-4-(6-Methoxy-indan-1-yl)-1-(2-methylthioacetyl)piperazine]", "pIC50": "> 8.00"}
{"smiles": "CC(=O)NCCc1c(Cc2ccccc2)[nH]c2ccccc12", "note": "[Luzindole, reference compound]", "pIC50": "6.60 to 7.00"}
{"smiles": "CCC(=O)N1CCN(C2CCc3ccc(OC)cc32)CC1", "note": "(stereo not shown) [4-(6-Methoxy-indan-1-yl)-1-propanoylpiperazine]", "pIC50": "7.00 to 8.00"}
{"smiles": "COc1ccc2c(c1)C(N1CCN(C(=O)C(C)C)CC1)CC2", "note": "(stereo not shown) [4-(6-Methoxy-indan-1-yl)-1-(2-methyl-propanoyl)piperazine]", "pIC50": "> 8.00 and 6.60 to 7.00"}
{"smiles": "C=CCCC(=O)N1CCN(C2CCc3ccc(OC)cc32)CC1", "note": "(single isomer, unassigned; (-)) [(-)-4-(6-Methoxy-indan-1-yl)-1-(4-pentenoyl)piperazine]", "pIC50": "6.60 to 7.00"}
{"smiles": "COc1ccc2c(c1)C(N1CCN(C(=O)c3ccc(Br)o3)CC1)CC2", "note": "(single isomer, unassigned; (-)) [(-)-1-[(5-Bromo-furan-2-yl)carbonyl]-4-(6-methoxy-indan-1-yl)piperazine]", "pIC50": "7.00 to 8.00"}
{"smiles": "COc1ccc2c(c1)C(N1CCN(C(=O)c3ccccc3)CC1)CC2", "note": "(single isomer, unassigned; (-)) [(-)-1-(Benzoyl)-4-(6-methoxy-indan-1-yl)piperazine]", "pIC50": "6.60 to 7.00"}
{"smiles": "COc1ccc2c(c1)C(N1CCN(C(C)=O)CC1)CC2", "note": "(stereo not shown) [1-Acetyl-4-(6-methoxy-indan-1-yl)piperazine]", "pIC50": "6.60 to 7.00"}
{"smiles": "CNC(=O)N1CCN(C2CCc3cc(F)c(OC)cc32)CC1", "note": "(stereo not shown) [N-Methyl-4-(5-fluoro-6-methoxy-indan-1-yl)piperazine-1-carboxamide]", "pIC50": "7.00 to 8.00"}
{"smiles": "COc1ccc2c(c1)C(N1CCN(C(=O)C3CCC3)CC1)CC2", "note": "(stereo not shown) [1-(Cyclobutylcarbonyl)-4-(6-methoxy-indan-1-yl)piperazine]", "pIC50": "> 8.00"}
{"smiles": "COc1ccc2c(c1)C(N1CCN(C(C)=O)CC1)CCC2", "note": "(stereo not shown) [1-Acetyl-4-(7-methoxy-tetralin-1-yl)piperazine]", "pIC50": "7.00 to 8.00"}
{"smiles": "COc1ccc2c(c1)C(N1CCCN(C(=O)C(C)C)CC1)CC2", "note": "(stereo not shown) [4-(6-Methoxy-indan-1-yl)-1-(2-methyl-propanoyl)homopiperazine]", "pIC50": "7.00 to 8.00"}
{"smiles": "CCCC(=O)N1CCN(C2CCc3ccc(OC)cc32)CC1", "note": "(stereo not shown) [1-Butanoyl-4-(6-methoxy-indan-1-yl)piperazine]", "pIC50": "> 8.00"}
{"smiles": "COc1ccc2c(c1)C(N1CCCN(C(=O)C3CC3)CC1)CC2", "note": "(stereo not shown) [1-(Cyclopropylcarbonyl)-4-(6-methoxy-indan-1-yl)homopiperazine]", "pIC50": "7.00 to 8.00"}
{"smiles": "COc1ccc2c(c1)C(N1CCN(C(=O)N(C)C)CC1)CC2", "note": "(stereo not shown) [N,N-Dimethyl-4-(6-methoxy-indan-1-yl)piperazine-1-carboxamide]", "pIC50": "7.00 to 8.00"}
{"smiles": "CCOC(=O)N1CCN(C2CCc3ccc(OC)cc32)CC1", "note": "(stereo not shown) [1-(Ethoxycarbonyl)-4-(6-methoxy-indan-1-yl)piperazine]", "pIC50": "6.60 to 7.00"}
{"smiles": "CCNC(=O)N1CCN(C2CCc3ccc(OC)cc32)CC1", "note": "(stereo not shown) [N-Ethyl-4-(6-methoxy-indan-1-yl)piperazine-1-carboxamide]", "pIC50": "7.00 to 8.00"}
{"smiles": "C=CC(=O)N1CCN(C2CCc3ccc(OC)cc32)CC1", "note": "(stereo not shown) [1-(Ethenylcarbonyl)-4-(6-methoxy-indan-1-yl)piperazine]", "pIC50": "7.00 to 8.00"}
{"smiles": "CCCC(=O)N1CCN(C2CCCc3ccc(OC)cc32)CC1", "note": "(stereo not shown) [1-(1-Butanoyl)-4-(7-methoxy-tetralin-1-yl)piperazine]", "pIC50": "7.00 to 8.00"}
{"smiles": "COc1ccc2c(c1)C(N1CCN(C(=O)c3cccn3C)CC1)CC2", "note": "(single isomer, unassigned; (-)) [(-)-4-(6-Methoxy-indan-1-yl)-1-[(1-methyl-pyrrol-2-yl)carbonyl]piperazine]", "pIC50": "> 8.00"}
{"smiles": "CCCCCCCCCOc1ccc2c(c1)C(N1CCN(C(=O)C3CC3)CC1)CC2", "note": "(stereo not shown) [1-(Cyclopropylcarbonyl)-4-(6-nonyloxy-indan-1-yl)piperazine]", "pIC50": "6.60 to 7.00"}
{"smiles": "C=C(C)C(=O)N1CCN(C2CCc3ccc(OC)cc32)CC1", "note": "(stereo not shown) [1-[(1-Methyl-ethenyl)carbonyl]-4-(6-methoxy-indan-1-yl)piperazine]", "pIC50": "> 8.00"}
{"smiles": "COc1ccc2c(c1)C(N1CCN(C(=O)C3CCCC3)CC1)CC2", "note": "(stereo not shown) [1-(Cyclopentylcarbonyl)-4-(6-methoxy-indan-1-yl)piperazine]", "pIC50": "7.00 to 8.00"}
{"smiles": "CCc1ccc2c(c1)C(N1CCN(C(=O)C(C)C)CC1)CC2", "note": "(stereo not shown) [4-(6-Ethyl-indan-1-yl)-1-(2-methylpropanoyl)piperazine]", "pIC50": "6.60 to 7.00"}
{"smiles": "COc1ccc2c(c1)C(N1CCN(C(=O)c3ccsc3)CC1)CC2", "note": "(single isomer, unassigned; (-)) [(-)-4-(6-Methoxy-indan-1-yl)-1-[(3-thienyl)carbonyl]piperazine]", "pIC50": "> 8.00"}
